Values of other authors as cited in patent US20220184102A1, “COMPOSITIONS AND METHODS FOR TREATING AGE-RELATED MACULAR DEGENERATION” (priority 2019, published 2022).

How the values were obtained:
[1] = system: neovascular exudative AMD; details: oral minocycline combined with reduced-fluence PDT, intravitreal ranibizumab, intravitreal dexamethasone
[2] = system: early seropositive rheumatoid arthritis; details: 20 mg twice-daily (subantimicrobial dose) plus MTX
chronic periodontitis = details: 20 mg twice daily, two years
intestinal flora = details: 20 mg twice-daily for 9 months

| levels in the brain relative to doxycycline at the same dose | Compound | safety concerns [1] | number of adverse events versus placebo group [2] | microbiological resistance (chronic periodontitis) | safety issues (chronic periodontitis) | tolerability (adult periodontitis; 10 mg daily, 20 mg daily or 20 mg twice daily, 9-12 months) | resistance to doxycycline (adult periodontitis; during the course of the study) | liver or kidney function tests versus control group (adult periodontitis; treatment groups) | antibacterial effect on intestinal flora (intestinal flora) |
| --- | --- | --- | --- | --- | --- | --- | --- | --- | --- |
| ~3 fold | CN(C)c1ccc(O)c2c1C[C@H]1C[C@H]3[C@H](N(C)C)C(O)=C(C(N)=O)C(=O)[C@@]3(O)C(O)=C1C2=O [minocycline] | No safety concerns were identified |  |  |  |  |  |  |  |
|  | C[C@H]1c2cccc(O)c2C(=O)C2=C(O)[C@]3(O)C(=O)C(C(N)=O)=C(O)[C@@H](N(C)C)[C@@H]3[C@@H](O)[C@@H]21 [doxycycline] |  | equivalent | no sign of microbiological resistance | no significant safety issues | well-tolerated | no resistance developed | No clinically significant differences | no antibacterial effect |
